Results as given in patent US20260109693A1, “BUTENOLIDE COMPOUNDS CONTAINING THIAZOLIDINONE STRUCTURE AS WELL AS PREPARATION METHOD THEREFOR AND USE THEREOF” (priority 2023, published 2026).
Converted amounts (≈) assume the structure as drawn.

Experiments:
[1] = tested on: Rice bakanae pathogenic fungi; experiment: Precise toxicity testing, five concentration gradients of toxic PDA plates; assay type: cell-based
[2] = tested on: Pathogenic fungi of tomato gray mold; experiment: In vitro fungicidal activity, mycelial growth rate method; assay type: cell-based; conditions: 50 mg/L, PDA plate
[3] = tested on: Wheat scab pathogenic fungi; assay type: cell-based
[4] = tested on: Pathogenic fungi of rice sheath blight; experiment: In vitro fungicidal activity, mycelial growth rate method; assay type: cell-based; conditions: 50 mg/L, PDA plate
[5] = tested on: Pathogenic fungi of pepper phytophthora disease; experiment: as above; assay type: cell-based; conditions: 50 mg/L, PDA plate; for inhibition at 50 µg/mL: Phytophthora
[6] = tested on: Rape sclerotinia pathogenic fungi; experiment: Precise toxicity testing, five concentration gradients of toxic PDA plates; assay type: cell-based
[7] = tested on: Pathogenic fungi of rice bakanae disease; experiment: In vitro fungicidal activity, mycelial growth rate method; assay type: cell-based; conditions: 50 mg/L, PDA plate
[8] = tested on: Pathogenic fungi of wheat scab; experiment: whole plant or invertebrate; assay type: cell-based; conditions: for inhibition rate, Pathogenic fungi of wheat scab: 50 mg/L, PDA plate, mycelial growth; for inhibition at 50 µg/mL: read-out: inhibition rate, Pathogenic fungi of wheat scab
[9] = tested on: Pathogenic fungi of rape sclerotinia; experiment: In vitro fungicidal activity, mycelial growth rate method; assay type: cell-based; conditions: 50 mg/L, PDA plate; for inhibition at 50 µg/mL: Sclerotinia
corn rust disease = experiment: In vivo protective activity, live pot cultivation method; conditions: 400 mg/L, sprayed 24 hours before inoculation, potted plants
Protocol: (§1) The determination method was as follows: the live pot cultivation determination method was used, that is, the compound sample to be tested was dissolved in a small amount of solvent (the type of solvent was such as acetone, methanol, and DMF, and was selected according to its dissolving ability for the sample, with a volume ratio of solvent amount to spray amount equal to or less than 0.05), diluted with water containing 0.1% Tween 80, and prepared into a test solution with a required concentration. With a crop sprayer, the test solution was sprayed on a pathogen host plant (the host plant was a standard potted seedling cultivated in a greenhouse), and inoculation with the pathogen was performed after 24 hours. Based on the characteristics of the pathogen, plants that require temperature control and moisturizing cultivation were inoculated and placed in an artificial climate chamber for cultivation, and transferred to a greenhouse for cultivation after the pathogen infection was completed. […] The disease prevention efficacy of the compound was evaluated after the disease had fully developed (usually one week).
(§2) At a concentration of 400 mg/L, the in vivo protective activity determination results of some compounds are as follows: […]

wheat powdery mildew = experiment: as above; conditions: 400 mg/L, sprayed 24 hours before inoculation, potted plants
Protocol: as §1, §2

cucumber downy mildew = experiment: as above; conditions: 400 mg/L, sprayed 24 hours before inoculation, potted plants
Protocol: as §1, §2

## 5-(4-methyl-2-oxo-1-oxaspiro[4,5]-dec-3-en-3-ethylidene)-2-thio-4-thiazolidinone [Compound 3-1]
[1]
  EC50: 0.72 µg/mL
  EC90: 5.04 µg/mL
[2]
  inhibition rate, Pathogenic fungi of tomato gray mold: 62.4 ± 2.5%
[3]
  EC50: 0.079 µg/mL
  EC90: 4.97 µg/mL
[4]
  inhibition rate, Pathogenic fungi of rice sheath blight: 45.2 ± 2.1%
[5]
  inhibition rate, Pathogenic fungi of pepper phytophthora disease: 59.7 ± 0.4%
[6]; Rape sclerotinia
  EC50: 2.02 µg/mL
  EC90: 9.81 µg/mL
[7]
  inhibition rate, Pathogenic fungi of rice bakanae disease: 100.0 ± 0.0%
[8]
  inhibition rate, Pathogenic fungi of wheat scab: 100.0 ± 0.0%
[9]
  inhibition rate, Pathogenic fungi of rape sclerotinia: 82.4 ± 1.7%

## 5-(4-phenyl-2-oxo-1-oxaspiro[4,5]-dec-3-en-3-ethylidene)-2-thio-4-thiazolidinone [Compound 3-4]
[2]
  inhibition rate, Pathogenic fungi of tomato gray mold: 33.6 ± 1.7%
[4]
  inhibition rate, Pathogenic fungi of rice sheath blight: 31.9 ± 5.6%
[5]
  inhibition rate, Pathogenic fungi of pepper phytophthora disease: 44.8 ± 0.3%
[7]
  inhibition rate, Pathogenic fungi of rice bakanae disease: 15.8 ± 2.4%
[8]
  inhibition rate, Pathogenic fungi of wheat scab: 27.7 ± 2.9%
[9]
  inhibition rate, Pathogenic fungi of rape sclerotinia: 68.3 ± 4.2%

## COC(=O)Nc1nc2ccccc2[nH]1 [Carbendazim]
[2]
  inhibition at 50 µg/mL: 5.4 ± 2.4%
[4]
  inhibition at 50 µg/mL: 100%
[5]
  inhibition at 50 µg/mL: 4.6 ± 1.2%
[7]
  inhibition at 50 µg/mL: 87.5 ± 3.1%
[8]
  inhibition at 50 µg/mL: 100%
[9]
  inhibition at 50 µg/mL: 72.5 ± 2.1%

## CCCCNC1=NC(=O)C(=C(C)C2=C(c3ccccc3)C(C)(C)OC2=O)S1 [Compound I-3-5]
Corn rust disease
  efficacy against corn rust disease: 86%

## CC(=C1SC(Nc2ccc(C(F)(F)F)cc2)=NC1=O)C1=C(c2ccc(Cl)cc2)C2(CCCCC2)OC1=O [Compound I-6-9]
Wheat powdery mildew
  efficacy against wheat powdery mildew: 88%

## CCCCNC1=NC(=O)C(=C(C)C2=C(c3ccc(Br)cc3)C3(CCCCC3)OC2=O)S1 [Compound I-7-5]
Cucumber downy mildew
  efficacy against cucumber downy mildew: 95%

## CSc1ccc(C2=C(C(C)=C3SC(Nc4ccccc4-c4ccc(Cl)cc4)=NC3=O)C(=O)OC23CCCCC3)cc1 [Compound I-10-17]
Corn rust disease
  efficacy against corn rust disease: 89%

## CC(=C1SC(Nc2ccc(F)cc2-c2ccc(Cl)c(Cl)c2)=NC1=O)C1=C(c2ccc(C(F)(F)F)cc2)C2(CCCCC2)OC1=O [Compound I-12-15]
Cucumber downy mildew
  efficacy against cucumber downy mildew: 93%

## CC(=C1SC(NCC(C)C)=NC1=O)C1=C(c2cccc(Cl)c2)C2(CCCCC2)OC1=O [Compound I-14-6]
Wheat powdery mildew
  efficacy against wheat powdery mildew: 85%

## CC(=C1SC(Nc2ccccc2)=NC1=O)C1=C(c2cccc(C(F)(F)F)c2)C2(CCCCC2)OC1=O [Compound I-16-7]
Wheat powdery mildew
  efficacy against wheat powdery mildew: 81%

## CCOC(=O)C(C#N)=C(N)c1ccccc1 [Phenamacril]
[1]
  EC50: 0.071 µg/mL (≈ 0.328 µM)
  EC90: 0.54 µg/mL (≈ 2.5 µM)
[2]
  inhibition rate, Pathogenic fungi of tomato gray mold: 13.1 ± 0.3%
[3]
  EC50: 0.078 µg/mL (≈ 0.361 µM)
  EC90: 5.60 µg/mL (≈ 25.9 µM)
[4]
  inhibition rate, Pathogenic fungi of rice sheath blight: 11.5 ± 1.4%
[5]
  inhibition rate, Pathogenic fungi of pepper phytophthora disease: 8.1 ± 2.1%
[7]
  inhibition rate, Pathogenic fungi of rice bakanae disease: 100.0 ± 0.0%
[8]
  inhibition rate, Pathogenic fungi of wheat scab: 100.0 ± 0.0%
[9]
  inhibition rate, Pathogenic fungi of rape sclerotinia: 23.0 ± 1.3%

## Cc1nc(C(F)(F)F)c(C(=O)Nc2c(Br)cc(OC(F)(F)F)cc2Br)s1 [Thifluzamide]
[2]
  inhibition at 50 µg/mL: 28.2 ± 1.2%
[4]
  inhibition at 50 µg/mL: 90.1 ± 4.5%
[5]
  inhibition at 50 µg/mL: 15.1 ± 2.8%
[6]; Sclerotinia
  EC50: 1.53 µg/mL (≈ 2.9 µM)
  EC90: 16.3 µg/mL (≈ 30.8 µM)
[7]
  inhibition at 50 µg/mL: 5.8 ± 1.4%
[8]
  inhibition at 50 µg/mL: 13.4 ± 6.3%
[9]
  inhibition at 50 µg/mL: 83 ± 1.2%
